Source: the Kinase Knowledgebase extract (Sharma et al. 2016)
pIC50: −log10 of the molar value.

Target: PIK3CG (human) (UniProt P48736)
Experiment: Inhibition of PIK3CG Kinase Activity

PIK3CG (human), sequence (P48736 whole entry, looked up): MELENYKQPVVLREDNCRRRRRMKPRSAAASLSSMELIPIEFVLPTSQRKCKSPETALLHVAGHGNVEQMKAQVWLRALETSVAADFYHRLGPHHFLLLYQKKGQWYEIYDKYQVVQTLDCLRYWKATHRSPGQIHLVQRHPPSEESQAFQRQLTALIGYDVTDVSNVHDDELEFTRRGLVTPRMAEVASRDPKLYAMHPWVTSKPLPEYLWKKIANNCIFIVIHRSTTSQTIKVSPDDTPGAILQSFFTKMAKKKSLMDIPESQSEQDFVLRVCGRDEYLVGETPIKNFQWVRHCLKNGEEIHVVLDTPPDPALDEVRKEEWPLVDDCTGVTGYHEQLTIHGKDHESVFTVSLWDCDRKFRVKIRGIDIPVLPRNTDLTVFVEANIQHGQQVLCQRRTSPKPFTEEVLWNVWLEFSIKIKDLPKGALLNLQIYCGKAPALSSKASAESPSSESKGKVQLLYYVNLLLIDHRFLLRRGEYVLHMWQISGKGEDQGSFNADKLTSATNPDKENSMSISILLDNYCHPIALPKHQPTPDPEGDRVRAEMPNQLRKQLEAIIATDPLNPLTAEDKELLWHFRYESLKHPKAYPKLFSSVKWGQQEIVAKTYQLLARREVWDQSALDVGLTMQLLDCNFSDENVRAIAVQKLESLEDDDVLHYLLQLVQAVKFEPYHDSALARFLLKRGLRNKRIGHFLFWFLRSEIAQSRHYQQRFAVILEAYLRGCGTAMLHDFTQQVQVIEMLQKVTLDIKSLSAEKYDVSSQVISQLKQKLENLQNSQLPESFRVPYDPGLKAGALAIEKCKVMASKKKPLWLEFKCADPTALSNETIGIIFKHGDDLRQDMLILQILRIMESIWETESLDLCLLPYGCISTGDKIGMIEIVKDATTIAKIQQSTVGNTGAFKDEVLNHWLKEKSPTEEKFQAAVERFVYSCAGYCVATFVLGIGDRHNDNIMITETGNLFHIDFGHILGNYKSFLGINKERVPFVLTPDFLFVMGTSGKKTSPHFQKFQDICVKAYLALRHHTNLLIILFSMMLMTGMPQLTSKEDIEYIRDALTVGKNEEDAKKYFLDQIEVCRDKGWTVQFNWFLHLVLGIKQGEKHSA

Compound | pIC50
CC(=O)Nc1nc2c(s1)-c1c(c(C3CC3)nn1-c1ccc(C(=O)N(C)[C@@H]3CCN(CC4CCCC4)C3)cc1Cl)CC2 | > 6.22
CC(=O)Nc1nc2c(s1)-c1c(c(C3CC3)nn1C1CCC(C(=O)N(C)[C@H]3CC[C@@H](N4CCCC4)CC3)CC1)CC2 (stereo not given in full) | > 6.22
CC(=O)Nc1nc2c(s1)-c1c(c(C3CC3)nn1-c1ccc(C(=O)N(C)[C@@H]3CCN(CC4CCCC4)C3)cc1C)CC2 | > 6.22
CC(=O)Nc1nc2c(s1)-c1c(c(C3CCCC3)nn1-c1ccc(C(=O)N[C@H]3CC[C@@H](N4CCCCC4)CC3)cc1Cl)CC2 | > 6.22
CC(=O)Nc1nc2c(s1)-c1c(c(C3CC3)nn1-c1ccc(C(=O)N(C)C3CCN(CC4CCCC4)CC3)c(Cl)c1)CC2 | > 6.22
CCN(C(=O)c1ccc(-n2nc(C3CC3)c3c2-c2sc(NC(C)=O)nc2CC3)c(F)c1)[C@H]1CC[C@@H](N2CCCC2)CC1 | > 6.22
CC(=O)Nc1nc2c(s1)-c1c(c(C3CC3)nn1-c1ccc(C(=O)N(C)CC3CCN(C4CCCC4)CC3)cc1Cl)CC2 | > 6.22
CC(=O)Nc1nc2c(s1)-c1c(c(C3CC3)nn1-c1ccc(C(=O)NC[C@H]3CCN(C4CCCC4)C3)c(Cl)c1)CC2 | > 6.22
CC(=O)Nc1nc2c(s1)-c1c(c(C3CC3)nn1-c1ccc(C(=O)N(C)[C@@H]3CCN(CC4CCCC4)C3)c(F)c1)CC2 | > 6.22
CC(=O)Nc1nc2c(s1)-c1c(c(C3CC3)nn1-c1ccc(C(=O)N(C)[C@H]3CC[C@@H](N4CCCCC4)CC3)cc1F)CC2 | > 6.22
CCN(C(=O)c1ccc(-n2nc(C3CC3)c3c2-c2sc(NC(C)=O)nc2CC3)c(C)c1)[C@H]1CC[C@@H](N2CCCC2)CC1 | > 6.22
CC(=O)Nc1nc2c(s1)-c1c(c(C3CC3)nn1-c1ccc(C(=O)N(C)[C@H]3CCN(C4CCCCC4)C3)c(Cl)c1)CC2 | > 6.22
CC(=O)Nc1nc2c(s1)-c1c(c(C3CC3)nn1C1CCC(C(=O)NC3CCN(C4CCCC4)CC3)CC1)CC2 (stereo not given) | > 6.22
CCCN1CCC(C(=O)N2CCC(n3nc(C4CC4)c4c3-c3sc(NC(C)=O)nc3CC4)CC2)CC1 | > 6.22
CC(=O)Nc1nc2c(s1)-c1c(c(C3CC3)nn1-c1ccc(C(=O)NC3CCN(C4CCOCC4)CC3)c(C)c1)CC2 | > 6.22
CC(=O)Nc1nc2c(s1)-c1c(c(C3CCCC3)nn1-c1ccc(C(=O)NC3CCN(C4CCOCC4)CC3)cc1Cl)CC2 | > 6.22
CC(=O)Nc1nc2c(s1)-c1c(c(C3CC3)nn1-c1ccccc1)CC2 | > 6.22
CC(=O)Nc1nc2c(s1)-c1c(c(C3CC3)nn1-c1ccc(C(=O)N3CCC(N4CCCC4)CC3)c(Cl)c1)CC2 | > 6.22
CC(=O)Nc1nc2c(s1)-c1c(c(C3CC3)nn1-c1ccccc1Br)CC2 | > 6.22
CC(=O)Nc1nc2c(s1)-c1c(c(C3CC3)nn1-c1ccc(C(=O)NC3CCN(CC4CCCC4)CC3)c(C)c1)CC2 | > 6.22
